From patent publication US9789181B2, “PAN-DR binding polypeptides and uses thereof” (Epimmune Inc., priority 2009, dated 2017) come the findings set out here.

Changes are numbered by the printed parent chain. Names may count otherwise. Where no end group is shown, it is not given here.

One data set deals with purified HLA DRB1 *0404 (Homo sapiens, UniProt P01903+P01911, A100R/A169T/F76Y/I96L/K127E/L162R/M171V/N62H/P40V/Q125Y/R42H/S133A/S149N/S66Y/V209L/W38E). Briefly: IC50nM to purified HLA | DRB1 *0404. The procedure: (§1) Table printed on a drawing sheet, FIG. 1
Head of the field: IC50nM to purified HLA | DRB1 *0404
(§2) First copying reader's note: The comma is the decimal sign and the point a thousands separator (e.g. 21.831); some values are printed bold or italic and some SEQ ID NOs underlined, with no legend on the sheet.
Where the first naming reader finds the target: head: IC50nM to purified HLA | DRB1 *0404

In the next data set the target is purified HLA DRB4 *0101 (Homo sapiens, UniProt P01903+P13762, G164S). Briefly: IC50nM to purified HLA | DRB4 *0101. The procedure:
as §1
Head of the field: IC50nM to purified HLA | DRB4 *0101
as §2
Where the first naming reader finds the target: head: IC50nM to purified HLA | DRB4 *0101

For another data set, the target named is purified HLA DRB1 *0802 (Homo sapiens, UniProt P01903+P01911, A100R/A103L/A169T/F76Y/H45Y/I96F/K41T/L162R/M171V/P40S/Q125H/Q178H/Q39Y/Q99D/R218S/R42G/S66Y/V115G/W38E). Nature of the data set: IC50nM to purified HLA | DRB1 *0802. How it is done: as §1
Head of the field: IC50nM to purified HLA | DRB1 *0802
as §2
Where the first naming reader finds the target: head: IC50nM to purified HLA | DRB1 *0802

For the next data set, the target named is purified HLA DRB1 *0701 (Homo sapiens, UniProt P01903+P01911, A100R/A102G/A103Q/D57E/D86V/E43K/F76Y/K127E/L162R/M171V/P40G/Q125H/Q99D/R33Q/R42Y/R54Q/S133A/S66F/T210M/V115G/Y107V/Y59L/Y89S). Briefly: IC50nM to purified HLA | DRB1 *0701. How it is done: as §1
Head of the field: IC50nM to purified HLA | DRB1 *0701
as §2
Where the first naming reader finds the target: head: IC50nM to purified HLA | DRB1 *0701

The next data set deals with purified HLA DRB1 *0401 (Homo sapiens, UniProt P01903+P01911, A100K/A169T/F76Y/I96L/K127E/L162R/M171V/N62H/P40V/Q125Y/R42H/S133A/S149N/S66Y/V115G/V209L/W38E). Briefly: IC50nM to purified HLA | DRB1 *0401. The procedure: as §1
Head of the field: IC50nM to purified HLA | DRB1 *0401
as §2
Where the first naming reader finds the target: head: IC50nM to purified HLA | DRB1 *0401

The next data set addresses purified HLA DRB1 *0301 (Homo sapiens, UniProt P01903+P01911, A100K/A102G/A103R/A169T/F55Y/I96L/K41T/L162R/M171V/P40S/Q125H/Q178H/Q39Y/R42S/S66N/T106N/T262R/W38E/Y61H). Nature of the data set: IC50nM to purified HLA | DRB1 *0301. The procedure: as §1
Head of the field: IC50nM to purified HLA | DRB1 *0301
as §2
Where the first naming reader finds the target: head: IC50nM to purified HLA | DRB1 *0301

The target in another data set is purified HLA DRB1 *0405 (Homo sapiens, UniProt P01903+P01911, A100R/A169T/D86S/F76Y/I96L/K127E/L162R/M171V/N62H/P40V/Q125Y/R42H/S133A/S149N/S66Y/V115G/V209L/W38E). Nature of the data set: IC50nM to purified HLA | DRB1 *0405. How it is done:
as §1
Head of the field: IC50nM to purified HLA | DRB1 *0405
as §2
Where the first naming reader finds the target: head: IC50nM to purified HLA | DRB1 *0405

The test system of data set [1] is crude extract from E. coli. Nature of the data set: In situ protease assay: TNFα variants in E. coli crude extract, SDS-PAGE and Western blot. Format: in vitro ADME. To be noted: for protease resistance of TNF variants (proteolytic cleavage inside the PADRE analogue sequence): E. coli crude extract, immunoblot, data not shown. The procedure: In order to test the protease resistance of selected, good binding PADRE analogues, their sequences were inserted by cloning techniques into a loop (loop EF) in human TNFα. Cell-free protein crude extract from E. coli expressing the modified TNFα molecules was prepared and proteolytic cleavage within the PADRE analogue sequences was analysed by SDS-PAGE followed by immunoblotting.
A synthetic cDNA encoding TNF (Y87S) was used as template. Oligonucleotides encoding PADRE or PADRE analogues were inserted into the template between A185 and E186 by PCR (cf. above). Resulting cDNAs were cloned into pET28b+(Novagen) and transformed into E. coli strain HMS 174. For recombinant expression, the resulting E. coli strains were cultured in fermentors in a defined medium at 37° C. Induction of recombinant expression was initiated by the addition of 1 mM of IPTG and temperature was lowered to 25° C. Cultures were harvested at 4, 8 or 24 h post-IPTG induction. TNFα variants were purified to >90% homogeneity by affinity chromatography using a TNFα specific monoclonal antibody as described in Nielsen et al., (2004), J Biol. Chem. 279:33593-33600. The purified TNFα variants were characterized by MALDI-TOF mass spectrometry to verify their identity and integrity.
In Situ Protease Assay: Analysis of the Protease Resistance of TNF-α Variants Using Western Blot
Aliquots (1 ml) of E. coli cell cultures, expressing the various TNF-α variants to be tested, were centrifuged (5000 g/5 min/5° C.) and the culture medium was discarded. Cell pellets were resuspended in 1 ml of 20 mM Bis-Tris, pH 6.0. Cell disruption was achieved by sonication (4×15 sec at an amplitude of 11 μm with 20 sec pauses between each sonication round). The resulting suspensions were centrifuged (20000 g/30 min/8° C.) and the supernatants (crude extracts) were transferred to fresh tubes. Crude extracts were then analysed for protein content using a Bradford protein assay (Biorad). Equivalent amounts of proteins were loaded onto 4-12% NuPAGE gels (Novex). After SDS-PAGE, proteins were transferred onto nitrocellulose membrane by semi-dry blotting. For immunoreaction, incubation with rabbit TNFα antiserum (1 h; dilution 1:10 000) and with horse radish peroxidase-conjugated secondary antibody (Dako P448) were carried out in Tris 50 mM, NaCl 150 mM, EDTA 5 mM, Igepal 0.1%, gelatine 0.5%. Detection was with ECL™ reagents (GE Healthcare).

The target in the next data set is purified HLA DRB1 *0101 (Homo sapiens, UniProt P01903+P01911, A100R/D57E/F55L/F60I/F76Y/I96L/L162R/M171V/P40L/Q125E/R42F/V115G/Y59C). Briefly: IC50nM to purified HLA | DRB1 *0101. The procedure: as §1
Head of the field: IC50nM to purified HLA | DRB1 *0101
as §2
Where the first naming reader finds the target: head: IC50nM to purified HLA | DRB1 *0101

purified HLA DRB4 *0101, sequence (P01903 26-254 limits assumed): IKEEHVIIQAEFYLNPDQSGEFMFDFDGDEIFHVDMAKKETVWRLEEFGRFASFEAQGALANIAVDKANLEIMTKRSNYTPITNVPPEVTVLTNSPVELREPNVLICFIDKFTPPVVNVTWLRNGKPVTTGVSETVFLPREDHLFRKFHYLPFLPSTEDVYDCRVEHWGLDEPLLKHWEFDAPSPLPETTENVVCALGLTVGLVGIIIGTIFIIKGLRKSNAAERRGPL
purified HLA DRB4 *0101, sequence (P13762 whole entry G164S): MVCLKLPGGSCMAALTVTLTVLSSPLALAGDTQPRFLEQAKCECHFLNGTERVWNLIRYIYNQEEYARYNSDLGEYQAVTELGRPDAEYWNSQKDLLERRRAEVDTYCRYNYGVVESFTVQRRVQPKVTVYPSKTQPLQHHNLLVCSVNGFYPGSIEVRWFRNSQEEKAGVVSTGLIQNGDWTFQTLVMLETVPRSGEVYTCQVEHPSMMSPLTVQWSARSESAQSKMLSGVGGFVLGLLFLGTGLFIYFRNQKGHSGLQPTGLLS
purified HLA DRB1 *0301, sequence (P01903 26-254 limits assumed, other chains not shown): as the sequence (P01903 26-254 limits assumed) above

What is called IC50 is the concentration that inhibits the measured activity by half. Low readings indicate greater potency in that assay, high ones weaker potency in that assay. Turning to AAAYFVAAFTLHAAA [SEQ ID NO: 23], the IC50 against purified HLA DRB1 *0404 is 0.67 nM; on purified HLA DRB4 *0101, 81 nM; at purified HLA DRB1 *0802, 5.9 nM; against purified HLA DRB1 *0701 it was 78 nM; on purified HLA DRB1 *0401, 1 nM; against purified HLA DRB1 *0301, 126 nM. Also, the IC50 at purified HLA DRB1 *0405 was 4.4 nM; at purified HLA DRB1 *0101, 3.4 nM. Further, the “protease resistance of PADRE analogue sequence” value in data set [1] (sequence inserted into loop EF of human TNFα, procedure of Example 2) is reported as “increased resistance towards proteolytic degradation”.

B1: SEQ ID NO: 78: TNFα (Y87S) variant with the 12 C-terminal residues of SEQ ID NO: 23 inserted (protein)
chain: MVRSSSRTPSDKPVAHVVANPQAEGQLQWLNRRANALLANGVELRDNQLVVPSEGLYLIYSQVLFKGQGCPSTHVLLTHTISRIAVSSQTKVNLLSAIKSPCQRETPEGAYFVAAFTLHAAAEAKPWYEPIYLGGVFQLEKGDRLSAEINRPDYLDFAESGQVYFGIIAL
modifications: Synthetic TNF variant incorporating pan-DR binding peptide
With B1, in [1], the “protease resistance of TNF variants (proteolytic cleavage inside the PADRE analogue sequence)” value is reported as “protease resistant”.

B2: SEQ ID NO: 79: TNFα (Y87S) variant with the 12 C-terminal residues of SEQ ID NO: 29 inserted (protein)
chain: B1 chain with Y111H, F116N
modifications: Synthetic TNF variant incorporating pan-DR binding peptide
Turning to B2, the “protease resistance of TNF variants (proteolytic cleavage inside the PADRE analogue sequence)” value in [1] is on record as “protease resistant”.

B3: SEQ ID NO: 84: TNFα (Y87S) variant with the 12 C-terminal residues of SEQ ID NO: 69 inserted (protein)
chain: B1 chain with Y111I, F116W
modifications: Synthetic TNF variant incorporating pan-DR binding peptide
With B3, the “protease resistance of TNF variants (proteolytic cleavage inside the PADRE analogue sequence)” value in [1] was “protease resistant”.
